Results on 2 compounds are retold here after publication PMC5855875, “Teixobactin analogues reveal enduracididine to be non-essential for highly potent antibacterial activity and lipid II binding” (Chemical Science, 2017).

Molecules are shown by their SMILES. Values after ≈ are worked out from the molar mass of the structure shown. Like-named read-outs stand apart in the source and are kept apart here. Bridge positions count the residues as written; N and C are the ends. Square brackets hold non-standard residues; d marks the D form. Peptide text beside a SMILES is read from it. d(aIle) = CC[C@H](C)[C@@H](N)C(=O)O; dNMeF = CN[C@H](Cc1ccccc1)C(=O)O Where only a bound is given, the exact number is not on record here.

One assay deals with MRSA ATCC 33591. The experiment in a line: microbe, parasite or virus in culture. The method, then:
(§1) were grown in Mueller Hinton broth (Oxoid) in triplicate. All incubations were at 37°C. Dilutions were carried out in triplicate. 100 µl of autoclaved Mueller Hinton broth was added to wells 2-12 in a 96-well plate. 200 µl of the peptide was added to well one at a concentration of 256 µg/mL. 100µl of peptide in well one was taken up and pipetted into well two. The mixture was then mixed via pipetting before 100µl was taken up and pipetted into well three. This process was repeated up to well 11. Once […]
(§2) peptide present. Thus, the concentrations (in µg/mL) were: 256, 128, 64, 32, 16, 8, 4, 2, 1, 0.5, 0.25 and no peptide present. Each well was then inoculated with 100µl of bacteria that had been diluted to an […]
(§3) This was repeated three times. The 96-well plates were then incubated at 37°C for 24 hours. The MIC was determined to be the lowest concentration at which there was no growth visible. […]
(§4) was repeated at an altered initial concentration of 64 µg/ml. Therefore, the new concentrations for MIC […]
(§5) VIII. MIC testing (extended panel)
(§6) Bacterial cultures were grown overnight i n Mueller-Hinton Agar (MHA) plates and adjusted to a final concentration of 10 5 – 106 CFU/ml. 100 µl of inoculum in Meuller -Hinton broth (MHB) was mixed with equal volume of peptides (dissolved in MHB) at 2x their concentration in a 96 well plate. In parallel experiments, MIC values were determined in the media containing polysorbate 80 (0 .002%, v/v) to […]

The next assay relates to MRSA 1: MRSA ATCC 700699. The experiment in a line: microbe, parasite or virus in culture. The method, then: as §5, §6
(§7) prevent non-specific adsorption of the peptides to plastic surfaces. The final peptides concentrations […]
(§8) Positive and negative controls contained 200 µl of inoculum without any peptide dissolved in broth, respectively. The 96 well plates were then incubated at 37 °C for 24 h.
(§9) All the experiments were performed in two independent duplicates and the MIC was determined as the […]
(§10) Minimum bactericidal concentration
(§11) The lowest concentration in which no visible colonies could be detected was taken as the MBC.
(§12) 80. Strain information: MRSA 1: MRSA ATCC 700699, MRSA 2: MRSA DR 42412 (sputum), MRSA
(§13) 3: MRSA DM21455 (eye). […] Staphylococcus aureus ATCC

For assay [1], the system named is MRSA 3: MRSA DM21455 (eye). Nature of the assay: microbe, parasite or virus in culture. As for the experimental part: as §5, §6, §7, §8, §9, §10, §11, §12, §13
The subject of assay [2] is Staphylococcus aureus ATCC 29213. Nature of the assay: microbe, parasite or virus in culture. To be noted: for MIC: Staphylococcus aureus. As for the experimental part:
as §5, §6, §7, §8, §9, §10, §11, §12, §13

For assay [3], the system named is MRSA 2: MRSA DR 42412 (sputum). Nature of the assay: microbe, parasite or virus in culture. As for the experimental part: as §5, §6, §7
(§14) Positive and negative controls contained 200 µl of inoculum without any peptide dissolved in broth, respectively. The 96 well plates were then incubated at 37 °C for 24 h. […]
as §12, §13

A further assay concerns VRE 1: VRE ATCC 700802. Nature of the assay: organism not typed. The method, then:
as §5, §6, §7, §14, §12, §13

A further assay concerns VRE 2: VRE ATCC 29212. Nature of the assay: organism not typed. As for the experimental part:
as §5, §6, §7, §14, §12, §13

The subject of a further assay is M. smegmatis ATCC 607. The experiment in a line: microbe, parasite or virus in culture. Conditions: Mycolicibacterium smegmatis, ATCC607, 72 h. As for the experimental part:
as §1, §2, §3, §4
Middlebrook 7H9 broth (SIGMA) supplemented to 5% Middlebrook ADC (SIGMA) growth

A further assay concerns MRSA DM21455. The experiment in a line: Time-kill kinetics. In kind it is cell-based, Methicillin-resistant Staphylococcus aureus. To be noted: without polysorbate 80. As for the experimental part:
IX. Time-dependent killing of bacteria by teixobactin analogues 12 and 13 Time-kill kinetics against MRSA DM21455 strains (clinical isolates from patients) was carried out in MHB. Cultures were grown overnight in MHA plates and adjusted to a final inoculum of 10^5 – 10^6 CFU/ml in MHB (containing 0.002% v/v, polysorbate 80) with teixobactin analogues 12 and 13 maintained at a final concentration of 0.5 µg/ml. For vancomycin, the concentration was varied from 0.5 – 16 µg/ml without polysorbate 80. The tubes were then incubated at 37 °C. 100 µl of cell suspension was withdrawn at various time points (0, 2, 4, 8, 24 h), serially diluted (101-105 fold dilutions) and plated onto a MHA plates and incubated for 24 h at 37 °C.
Colonies were then enumerated […]. Colony counting too numerous to count (>300 colonies) was taken as 1010 CFU. Average values from two independent experiments are reported. […]
(also on this page, place not known: polyso rbate vancomycin , concentr ation 80 . wer e µ l (10 1-105 10 10 previously n - TL C three S76: (Ala10-teixobactin) literature.7 Lipid II Lipid II: Compound 8 = 1:1 Lipid II: Compound 16 = 1:1 Lipid II: Compound 8 = 1:2 Lipid II: Compound 16 = 1:2 Lipid II: Compound 8 = 1:4)

Where [4] appears, read: Staphylococcus aureus, MRSA, 24 h.
[5] abbreviates: Staphylococcus aureus, MRSA, 24 h, read-out: MIC (with polysorbate 80).
[6] abbreviates: Staphylococcus aureus, MRSA, 24 h, read-out: MIC (without polysorbate 80).
Where [7] appears, read: Enterococcus, 24 h, read-out: MIC (with polysorbate 80).
Setting [8] is: Enterococcus, 24 h, read-out: MIC (without polysorbate 80).

For `CN[C@H](CC(C)C)C(=O)N[C@H]1C(=O)N[C@@H](CC(N)=O)C(=O)N[C@H]2C(=O)N[C@H]3C(=O)N[C@H](C(=O)N[C@H](C(=O)O)c4cc(O)cc(O)c4-c4cc3ccc4O)[C@H](O)c3ccc(c(Cl)c3)Oc3cc2cc(c3O[C@@H]2O[C@H](CO)[C@@H](O)[C@H](O)[C@H]2O[C@H]2C[C@](C)(N)[C@H](O)[C@H](C)O2)Oc2ccc(cc2Cl)[C@H]1O` [Compound 18, Vancomycin, reference compound], the MIC amounted to 2 µg/mL (≈ 1.38 µM) in the assay on MRSA ATCC 33591 (Staphylococcus aureus, 24 h); 2 µg/mL (≈ 1.38 µM) against MRSA 1: MRSA ATCC 700699 (Staphylococcus aureus, 24 h); 1 µg/mL (≈ 0.69 µM) in the assay with MRSA 1: MRSA ATCC 700699 (Staphylococcus aureus, ATCC700699|MRSA, 24 h, read-out: MIC (with polysorbate 80)); 2 µg/mL (≈ 1.38 µM) in the assay with MRSA 1: MRSA ATCC 700699 (Staphylococcus aureus, ATCC700699|MRSA, 24 h, read-out: MIC (without polysorbate 80)); 2 µg/mL (≈ 1.38 µM) in assay [1] (setting [4]); 1 µg/mL (≈ 0.69 µM) in assay [1] (setting [5]). Further, the MIC was 2 µg/mL (≈ 1.38 µM) in [1] (setting [6]); 2 µg/mL (≈ 1.38 µM) in [2] (ATCC29213, 24 h, read-out: MIC (with polysorbate 80)); 4 µg/mL (≈ 2.76 µM) in [2] (ATCC29213, 24 h, read-out: MIC (without polysorbate 80)); 4 µg/mL (≈ 2.76 µM) in [2] (ATCC29213 / MSSA, 24 h); 2 µg/mL (≈ 1.38 µM) in assay [3] (setting [4]); 1 µg/mL (≈ 0.69 µM) in assay [3] (setting [5]). In addition, the MIC in assay [3] (setting [6]) is 2 µg/mL (≈ 1.38 µM); in the assay on VRE 1: VRE ATCC 700802 it was > 4 µg/mL; with VRE 1: VRE ATCC 700802 (setting [7]) it was > 4 µg/mL; in the assay on VRE 1: VRE ATCC 700802 (setting [8]) it was > 4 µg/mL; in the assay with VRE 2: VRE ATCC 29212, > 4 µg/mL; in the assay with VRE 2: VRE ATCC 29212 (setting [7]), > 4 µg/mL. Moreover, the MIC in the assay on VRE 2: VRE ATCC 29212 (setting [8]) is > 4 µg/mL; with M. smegmatis ATCC 607 it was > 64 µg/mL. Further, in the assay with MRSA DM21455 (0.5 μg mL^–1, 37 °C), the time-kill outcome is on record as “substantial growth was observed”. In addition, in the assay on MRSA DM21455 (MRSA 21455), the “concentration needed for similar effects as teixobactin analogues 12 & 13 in time-kill” value turned out to be 8 μg mL^–1.

On to `CC[C@H](C)[C@H](NC(=O)[C@@H](Cc1ccccc1)NC)C(=O)N[C@@H](CO)C(=O)N[C@H](CCC(N)=O)C(=O)N[C@@H](C(=O)N[C@H](C(=O)N[C@@H](CO)C(=O)N[C@H]1C(=O)N[C@@H](C)C(=O)N[C@@H](C(C)C)C(=O)N[C@@H]([C@@H](C)CC)C(=O)O[C@H]1C)[C@@H](C)CC)[C@@H](C)CC` [Compound 11, Val10-teixobactin] (H-[dNMeF]IS[dQ][d(aIle)]IS[dT]AVI; ester 8-C), for which the MIC is 0.5 μg mL^–1 against MRSA ATCC 33591 (ATCC 33591, 24 h); 1 μg mL^–1 in the assay with MRSA 1: MRSA ATCC 700699 (ATCC 700699, 24 h); 0.25 μg mL^–1 in assay [1] (3: DM21455 (eye, 24 h)); 0.5 μg mL^–1 in [3] (2: DR 42412 (sputum, 24 h)); 0.5 μg mL^–1 in the assay with VRE 1: VRE ATCC 700802 (ATCC 700802, 24 h); 0.5 μg mL^–1 against VRE 2: VRE ATCC 29212 (ATCC 29212, 24 h). Further, the “times better antibacterial activity than Arg10-teixobactin” value in the assay on MRSA ATCC 33591 (from MIC against MRSA ATCC 33591) was 4 times. Further, the “MIC (without polysorbate 80)” value against MRSA 1: MRSA ATCC 700699 (ATCC 700699, 24 h) is listed as 4 µg/mL (≈ 3.37 µM); in assay [1] (3: DM21455 (eye, 24 h)), 4 µg/mL (≈ 3.37 µM); in assay [2] (ATCC 29213, 24 h), 2 µg/mL (≈ 1.68 µM); in assay [3] (2: DR 42412 (sputum, 24 h)), 2 µg/mL (≈ 1.68 µM); in the assay on VRE 1: VRE ATCC 700802 (ATCC 700802, 24 h) it was 4 µg/mL (≈ 3.37 µM); with VRE 2: VRE ATCC 29212 (ATCC 29212, 24 h) it was 4 µg/mL (≈ 3.37 µM). Further, the MBC in the assay with MRSA 1: MRSA ATCC 700699 (MRSA 1 (MRSA ATCC 700699), plated on MHA, 37 °C, 24 h) is 4 μg mL^–1; in assay [1] (MRSA 3 (MRSA DM21455), plated on MHA, 37 °C, 24 h), 2 μg mL^–1; in assay [2] (Staphylococcus aureus ATCC 29213, plated on MHA, 37 °C, 24 h), 1 μg mL^–1; in [3] (MRSA 2 (MRSA DR 42412), plated on MHA, 37 °C, 24 h), 4 μg mL^–1. The “MIC (with polysorbate 80)” value in the assay on MRSA 1: MRSA ATCC 700699 (MRSA 1, MHB containing polysorbate 80 (0.002%, v/v), 37 °C, 24 h, two independent duplicates) worked out at 1 µg/mL (≈ 0.842 µM); in assay [1] (MRSA 3, MHB containing polysorbate 80 (0.002%, v/v), 37 °C, 24 h) it was 0.25 µg/mL (≈ 0.211 µM); in assay [2] (S. aureus ATCC 29213, MHB containing polysorbate 80 (0.002%, v/v), 37 °C, 24 h), 0.25 µg/mL (≈ 0.211 µM); in assay [3] (MRSA 2, MHB containing polysorbate 80 (0.002%, v/v), 37 °C, 24 h) it was 0.5 µg/mL (≈ 0.421 µM); in the assay on VRE 1: VRE ATCC 700802 (VRE 1, MHB containing polysorbate 80 (0.002%, v/v), 37 °C, 24 h) it was 0.5 µg/mL (≈ 0.421 µM); with VRE 2: VRE ATCC 29212 (VRE 2, MHB containing polysorbate 80 (0.002%, v/v), 37 °C, 24 h), 0.5 µg/mL (≈ 0.421 µM).
